Literature values as cited in patent US11690524B2, “Assessment of iron deposition post myocardial infarction as a marker of myocardial hemorrhage” (Cedars-Sinai Medical Center, priority 2011, dated 2023).

Assays:
[1] = qualitative statement
post MI patients = conditions: 6 months of therapy, TACT trial

| Compound | half-life in plasma / plasma life [1] | effect on MACE (major adverse cardiovascular events) (post MI patients) |
| --- | --- | --- |
| CC(=O)N(O)CCCCCNC(=O)CCC(=O)N(O)CCCCCNC(=O)CCC(=O)N(O)CCCCCN [deferoxamine] | short |  |
| O=C(O)CN(CCN(CC(=O)O)CC(=O)O)CC(=O)O [EDTA] |  | did not decrease MACE |
| Cc1c(O)c(=O)ccn1C [Deferiprone] | longer |  |
